{
  "source": "paper PMC10366102",
  "about": "“Dose escalation and expansion cohorts in patients with advanced breast cancer in a Phase I study of the CDK7-inhibitor samuraciclib” (Nature Communications, 2023)",
  "key": {"[1]": {"test_system": "HR+/HER2− advanced breast cancer patients post-CDK4/6 inhibitor", "details": "female, human, in vivo", "protocol": "In each cohort the dose of fulvestrant was 500 mg every 28 ± 2 days, with an additional 500 mg dose given 14 ± 2 days after the first dose. Cohort 1 tested samuraciclib 240 mg OD continuous dosing. If the DLT stopping criteria were not met, Cohort 2 commenced enrollment at the Module 1A MTD. Patients underwent regular safety monitoring and 8-week scans reported using RECIST V1.1[32].\nAs Module 1A was a ‘first time in human’ safety study, initial efficacy was evaluated as a secondary endpoint using the DCR, defined as the percentage of patients with a complete response (CR), PR or stabilization of disease at first on treatment RECIST assessment. To allow for the evaluation of longer-term benefit, Module 1B-1 and Module 2A used the CBR as a secondary endpoint, defined as the percentage of patients with CR or PR or stabilization of disease for at least 24 weeks between enrollment and disease progression or death due to any cause. In addition, the ORR was assessed, defined as the percentage of patients who had at least 1 objective response (CR or PR) prior to any evidence of progression. […] Statistical analyses of PFS using the Kaplan-Meier method were performed on the ITT population - defined as all enrolled patients. AEs were summarized from the Safety Population - defined as all patients who received at least 1 dose of samuraciclib - using the MedDRA system organ class (SOC), preferred term (PT), and graded according to CTCAE V5.0 (Supplementary Information).\nDLTs recorded in the first cycle. Patients were considered evaluable if they completed the first cycle or\ndiscontinued therapy in the first cycle due to a DLT. Patients in a cohort were replaced if they could not\ncomplete the first cycle unless this was due to a DLT.\nPart A was planned to have two dose cohorts with up to 6 evaluable patients to be enrolled per\ncohort. In each cohort, the dose of fulvestrant was fixed at the standard dose of 500mg given at intervals\nof 28±2 days with an additional 500mg dose given 14±2 days after the first dose. Fulvestrant was\nadministered as two consecutive slow intramuscular (IM) injections (1-2 minutes) of 250mg in 5 mL,\none in each buttock (gluteal area). Pre-and peri-menopausal women also had to have commenced\ntreatment with a luteinizing hormone-releasing hormone (LHRH) agonist at least 4 weeks prior to first\ndose of study medication. Patients continued to receive treatment in 28-day cycles until they no longer\ngained clinical benefit or they discontinued treatment.\nCohort 1 tested samuraciclib at 240mg OD as monotherapy, which is approximately 33% lower than the\ncurrent maximum tolerated dose (MTD) of 360mg. If no DLT was recorded in Cycle 1 in the first 3\nevaluable patients, Cohort 2 commenced enrolment at 360mg of samuraciclib OD.\nDLT in Cohort 1, a further 3 evaluable patients were assessed.\nstarted enrolment. If ≥ 2/3 or ≥ 2/6 patients in Cohort 1 experienced a DLT, dose escalation was\nstopped. In Cohort 2, if 0/3 or 1/3 evaluable patients experienced a DLT, the cohort was expanded to 6\npatients. If ≥ 2/3 or ≥ 2/6 patients experienced a DLT, the Cohort 1 dosing regimen (samuraciclib at\n240mg and fulvestrant at 500mg) was determined as the preliminary Phase 2 dosing regimen. If < 2/6\nconsidered the recommended Phase 2 regimen.\nThe SRC was convened to decide whether and when to open the second samuraciclib dosing cohort and\nwhich dosing regimen to advance to randomized Phase 2 testing. If the SRC considered safety and/or\npatients who had at least one response of complete response (CR) or partial response (PR) prior to any\nevidence of progression. The percentage change in tumor size was derived at each tumor imaging\nassessment by the best percentage change from baseline in the sum of the diameters of target lesions. In\nModule 1A initial efficacy was evaluated using the disease control rate (DCR) defined as percentage of\nparticipants with a complete response (CR) or partial response (PR) or stabilization of disease at first on\ntreatment RECIST assessment."}, "MCF7 cell line": {"test_system": "MCF7 cell line", "test": "Antibody validation, immunohistochemistry of treated cells, pCDK1/2/3", "assay_type": "cell-based, human", "details": "MCF7 cell line treated with samuraciclib", "protocol": "SUPPLEMENTARY TABLE 12: ANTIBODIES USED\nAntibody Application Supplier & Description Dilution/ Validation […]\nRNA pol II Immunohistoche Abcam Rabbit Immuno- Immunohistochemistry: pSer5 mistry (Fig 3); ab193467 monoclonal histochemistry: Positive nuclear staining Flow cytometry [EPR19015] to 1 in 8000 in normal spleen\n(Supplementary RNA 0.02 µg/mL samples. Significant\nFigure 5) polymerase II reduction in staining in CTD repeat Flow cytometry: MCF7 cell line treated\nYSPTSPS 1 in 100 with samuraciclib. […]\nintensity of labelling in […]\npCDK1/2/ Immunohistoche Abcam Rabbit 1 in 500 Immunohistochemistry:\n3 mistry (Fig 3) ab201008 monoclonal 1.2 μg/mL Positive nuclear staining [EPR19546] to in normal tonsil samples.\nT161) + CDK2 staining in MCF7 cell\n(phospho T160) line treated with\nGoat anti- Flow cytometry Abcam Polyclonal goat 1 in 1000 Flow cytometry: No Rabbit IgG (Supplementary ab150077 anti-rabbit IgG 2.0 μg/mL significant binding to H&L Figure 5) H&L peripheral blood\nAlexaFluor conjugated to mononucleated cells in 488 AlexaFluor 488 absence of primary"}},
  "data": [
    {"compound": "CC(C)c1cnn2c(NCc3ccccc3)cc(NC[C@H]3CCNC[C@@H]3O)nc12", "note": "[samuraciclib, Samuraciclib]", "values": [
      {"measurement": "Discontinued due to related gastrointestinal AEs", "setting": "[1]", "result": 23, "unit": "%"},
      {"measurement": "Discontinued due to unrelated AEs", "setting": "[1]", "result": 5, "unit": "patients"},
      {"measurement": "Drug-related: ALT increased", "setting": "[1]", "result": "3 (9.7) patients (%)"},
      {"measurement": "Drug-related: AST increased", "setting": "[1]", "result": "4 (12.9) patients (%)"},
      {"measurement": "Drug-related: Abdominal pain", "setting": "[1]", "result": "7 (22.6) patients (%)"},
      {"measurement": "Drug-related: Abdominal pain (second line so named)", "setting": "[1]", "result": "4 (12.9) patients (%)"},
      {"measurement": "Drug-related: Anaemia", "setting": "[1]", "result": "2 (6.5) patients (%)"},
      {"measurement": "Drug-related: Constipation", "setting": "[1]", "result": "2 (6.5) patients (%)"},
      {"measurement": "Drug-related: Decreased appetite", "setting": "[1]", "result": "9 (29.0) patients (%)"},
      {"measurement": "Drug-related: Dehydration", "setting": "[1]", "result": "2 (6.5) patients (%)"},
      {"measurement": "Drug-related: Diarrhoea", "setting": "[1]", "result": "28 (90.3) patients (%)"},
      {"measurement": "Drug-related: Dry mouth", "setting": "[1]", "result": "2 (6.5) patients (%)"},
      {"measurement": "Drug-related: Dry skin", "setting": "[1]", "result": "2 (6.5) patients (%)"},
      {"measurement": "Drug-related: Dysgeusia", "setting": "[1]", "result": "4 (12.9) patients (%)"},
      {"measurement": "Drug-related: Dysphagia", "setting": "[1]", "result": "3 (9.7) patients (%)"},
      {"measurement": "Drug-related: Fatigue", "setting": "[1]", "result": "11 (35.5) patients (%)"},
      {"measurement": "Drug-related: Flatulence", "setting": "[1]", "result": "2 (6.5) patients (%)"},
      {"measurement": "Drug-related: Headache", "setting": "[1]", "result": "4 (12.9) patients (%)"},
      {"measurement": "Drug-related: Mouth ulceration", "setting": "[1]", "result": "2 (6.5) patients (%)"},
      {"measurement": "Drug-related: Mucosal inflammation", "setting": "[1]", "result": "2 (6.5) patients (%)"},
      {"measurement": "Drug-related: Muscular weakness", "setting": "[1]", "result": "2 (6.5) patients (%)"},
      {"measurement": "Drug-related: Nausea", "setting": "[1]", "result": "25 (80.6) patients (%)"},
      {"measurement": "Drug-related: Rash", "setting": "[1]", "result": "3 (9.7) patients (%)"},
      {"measurement": "Drug-related: Stomatitis", "setting": "[1]", "result": "2 (6.5) patients (%)"},
      {"measurement": "Drug-related: Taste disorder", "setting": "[1]", "result": "2 (6.5) patients (%)"},
      {"measurement": "Drug-related: Thrombocytopenia", "setting": "[1]", "result": "3 (9.7) patients (%)"},
      {"measurement": "Drug-related: Vomiting", "setting": "[1]", "result": "23 (74.2) patients (%)"},
      {"measurement": "Drug-related: Weight decreased", "setting": "[1]", "result": "2 (6.5) patients (%)"},
      {"measurement": "Participants with any drug-related TEAE", "setting": "[1]", "result": "30 (96.8) patients (%)"},
      {"measurement": "pCDK1/2/3 staining", "setting": "MCF7 cell line", "result": "Significant reduction in"}
    ]}
  ]
}
